Laboratory results published in patent publication US7265152B2 (ViroPharma Incorporated, priority 2002, dated 2007).

Key:
[1] = tested on: HCV replicon (BB7 sequence) in Huh-7-Clone A cells; assay: HCV replicon assay: ELISA of NS5A protein in replicon-containing cells (Inhibition of Viral RNA Replication); assay type: cell-based; conditions: Hepatitis C virus; Huh-7-Clone A, NS5A ELISA, 72-hour incubation; ranges of EC50; read-out: Replicon
Source text: Antiviral activity of representative compounds of the invention was first evaluated in a human liver-derived cell line (Huh-7-Clone A) containing the HCV replicon (BB7 sequence) (See Lohmann et al. Science. 1999, 285:110-3; Blight K J et al., Science. 2000, 290:1972-4; Pietschmann, T. et al., J. Virol. 2001, 73:1252-1264; and Lohmann, V. et al., J. Virol. 2001, 75:1437-1449). The HCV replicon is a subgenomic viral RNA that expresses the HCV proteins required for its own replication. These proteins include non-structural proteins NS3, NS4A, NS4B, NS5A and NS5B. The replicon also contains a foreign gene encoding a drug-selectable marker (neomycin phosphotransferase) to allow for G418 (neomycin) selection of cells that contain the replicon.
An ELISA (enzyme-linked immunosorbant assay) was used to determine the effect of compounds within the scope of the invention on the amount of HCV NS5A protein produced after a 72-hour incubation of the replicon-containing cells in the presence of varying concentrations of compound. COSTAR® 96-well cell culture plates were used but other known cell culture plates may be used. After incubation, media is removed from wells and the cells are fixed to the assay plate using 0.05% glutaraldehyde. The glutaraldehyde is then washed off using phosphate-buffered saline (PBS) following a 1 hour incubation and cells are blocked for non-specific antibody binding using for example SUPERBLOCK® reagent (blocking buffer) in PBS. The blocking agent is rinsed from the cells with PBS after 1 hour at 37° C. and primary monoclonal antibody is added to each well containing compound. Primary antibody is incubated for 1 hour at 37° C. and rinsed 3 times with PBS containing 0.02% TWEEN-20™ before addition of Horseradish Peroxidase (HRP) conjugated secondary antibody. HRP is incubated for 1 hour at 37° C. and rinsed several times, first with PBS/TWEEN-20™ followed by PBS alone. To quantify peroxidase activity, 3,3′,5, 5′-tetramethylbenzidine (TMB) substrate is added to the plate and after 30 minutes, the plates are read in an ELISA plate reader at an OD of 650 nm. Compound dose response was measured in an 8-point dose curve diluted serially to determine the inhibitory concentration at 50% (EC50 value). […] Ranges of 50% effective concentrations (EC50s) for representative compounds within the scope of this invention are listed in Table 1. Preferred compounds have 50% effective concentrations at about 30 μM or less, more preferred compounds have 50% effective concentrations at about 5 μM or less, and most preferred compounds have 50% effective concentrations at about 0.5 μM or less.

HCV NS5B = molecular target: T1, HCV NS5B (Hepatitis C virus genotype 1b, UniProt Q9WMX2); assay: Inhibition of viral RNA-dependent RNA polymerase (RdRp), in vitro biochemical assay; parameters: species or system HCV genotype 1b virus (BB7); conditions: purified His-tagged NS5B (BB7), carboxyl terminal 21 amino acids removed; read-out: HCV pol-BB7 IC50
T1 construct: fusion protein, of which the carboxyl terminal 21 amino acids were removed to enhance its solubility; His tag (GSHHHHHH); made in house; host or cells: E. coli
Outline: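 Purified recombinant NS5B from a genotype 1b consensus (BB7), His-tagged, E. coli-expressed, with the C-terminal 21 residues deleted. Inhibition of RdRp activity in vitro was measured, and IC50 is the concentration giving 50% inhibition.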

CNC(=O)c1c(-c2ccc(F)cc2)oc2cc(N(CCO)S(C)(=O)=O)c(OC)cc12 [Example 42, 2-(4-Fluoro-phenyl)-6-[(2-hydroxy-ethyl)-methanesulfonyl-amino]-5-methoxy-benzofuran-3-carboxylic acid methylamide]
EC50 [1]: < 1 µM
IC50 (HCV NS5B): ≤ 0.5 µM

CNC(=O)c1c(-c2ccc(F)cc2)oc2cc(N(CCO)S(C)(=O)=O)c(C3CC3)cc12 [Example 43, 5-Cyclopropyl-2-(4-fluoro-phenyl)-6-[(2-hydroxy-ethyl)-methanesulfonyl-amino]-benzofuran-3-carboxylic acid methylamide]
EC50 [1]: < 1 µM
IC50 (HCV NS5B): ≤ 0.5 µM

CCc1cc2c(C(=O)NC)c(-c3ccc(F)cc3)oc2cc1NS(C)(=O)=O [Example 44, 5-Ethyl-2-(4-fluoro-phenyl)-6-methanesulfonylamino-benzofuran-3-carboxylic acid methylamide]
EC50 [1]: < 10 µM
IC50 (HCV NS5B): ≤ 0.5 µM

CCc1cc2c(C(=O)NC)c(-c3ccc(F)cc3)oc2cc1N(C)S(C)(=O)=O [Example 45, 5-Ethyl-2-(4-fluoro-phenyl)-6-(methanesulfonyl-methyl-amino)-benzofuran-3-carboxylic acid methylamide]
EC50 [1]: < 1 µM
IC50 (HCV NS5B): ≤ 0.5 µM

CCc1cc2c(C(=O)NC)c(-c3ccc(F)cc3)oc2cc1N(CCO)S(C)(=O)=O [Example 46, 5-Ethyl-2-(4-fluoro-phenyl)-6-[(2-hydroxy-ethyl)-methanesulfonyl-amino]-benzofuran-3-carboxylic acid methylamide]
EC50 [1]: < 1 µM
IC50 (HCV NS5B): ≤ 0.5 µM

CNC(=O)c1c(-c2ccc(F)cc2)oc2cc(C3CCCN3C(C)=O)c(OC)cc12 (centres unmarked) [Example 47, 6-(1-Acetyl-pyrrolidin-2-yl)-2-(4-fluoro-phenyl)-5-methoxy-benzofuran-3-carboxylic acid methylamide]
EC50 [1]: < 1 µM
IC50 (HCV NS5B): ≤ 0.5 µM

CNC(=O)c1c(-c2ccc(F)cc2)oc2cc(C3CNC(=O)O3)c(OC)cc12 (centres unmarked) [Example 48, 2-(4-Fluoro-phenyl)-5-methoxy-6-(2-oxo-oxazolidin-5-yl)-benzofuran-3-carboxylic acid methylamide]
EC50 [1]: < 10 µM
IC50 (HCV NS5B): ≤ 0.5 µM

CNC(=O)c1c(-c2ccc(F)cc2)oc2cc(C(C)(C)O)c(OC)cc12 [Example 49, 2-(4-Fluoro-phenyl)-6-(1-hydroxy-1-methyl-ethyl)-5-methoxy-benzofuran-3-carboxylic acid methylamide]
EC50 [1]: < 1 µM
IC50 (HCV NS5B): ≤ 0.5 µM

CNC(=O)c1c(-c2ccc(F)cc2)oc2cc(-c3noc(C)n3)c(OC)cc12 [Example 50, 2-(4-Fluoro-phenyl)-5-methoxy-6-(5-methyl-[1,2,4]oxadiazol-3-yl)-benzofuran-3-carboxylic acid methylamide]
EC50 [1]: < 1 µM
IC50 (HCV NS5B): ≤ 0.5 µM

CNC(=O)c1c(-c2ccc(F)cc2)oc2cc(-c3c(C)noc3C)c(OCCCO)cc12 [Example 51, 6-(3,5-Dimethyl-isoxazol-4-yl)-2-(4-fluoro-phenyl)-5-(3-hydroxy-propoxy)-benzofuran-3-carboxylic acid methylamide]
EC50 [1]: < 1 µM
IC50 (HCV NS5B): ≤ 0.5 µM

CNC(=O)c1c(-c2ccc(F)cc2)oc2cc(N(C)S(C)(=O)=O)c(OCCN3CCOCC3)cc12 [Example 52, 2-(4-Fluoro-phenyl)-6-(methanesulfonyl-methyl-amino)-5-(2-morpholin-4-yl-ethoxy)-benzofuran-3-carboxylic acid methylamide]
EC50 [1]: < 1 µM
IC50 (HCV NS5B): ≤ 0.5 µM

CNC(=O)c1c(-c2ccccc2)oc2ccc(OCc3ccccc3-c3ccccc3)cc12 [Example 53, 5-(Biphenyl-2-ylmethoxy)-2-phenyl-benzofuran-3-carboxylic acid methylamide]
EC50 [1]: < 30 µM
IC50 (HCV NS5B): 5 to 30 µM

CNC(=O)c1c(-c2ccc(OC)cc2)oc2ccc(OC)cc12 [Example 54, 5-Methoxy-2-(4-methoxy-phenyl)-benzofuran-3-carboxylic acid methylamide]
EC50 [1]: < 10 µM
IC50 (HCV NS5B): 0.5 to 5 µM

CNC(=O)c1c(-c2cccc(C(F)(F)F)c2)oc2ccc(OC)cc12 [Example 55, 5-Methoxy-2-(3-trifluoromethyl-phenyl)-benzofuran-3-carboxylic acid methylamide]
EC50 [1]: < 30 µM
IC50 (HCV NS5B): 0.5 to 5 µM

CNC(=O)c1c(-c2ccc(C(F)(F)F)cc2)oc2ccc(OC)cc12 [Example 56, 5-Methoxy-2-(4-trifluoromethyl-phenyl)-benzofuran-3-carboxylic acid methylamide]
EC50 [1]: < 10 µM
IC50 (HCV NS5B): 0.5 to 5 µM

CCOc1ccc2oc(-c3ccccc3)c(C(=O)NC)c2c1 [Example 57, 5-Ethoxy-2-phenyl-benzofuran-3-carboxylic acid methylamide]
EC50 [1]: > 30 µM
IC50 (HCV NS5B): 0.5 to 5 µM

CNC(=O)c1c(-c2ccccc2F)oc2ccc(OC)cc12 [Example 58, 2-(2-Fluoro-phenyl)-5-methoxy-benzofuran-3-carboxylic acid methylamide]
EC50 [1]: < 10 µM
IC50 (HCV NS5B): 0.5 to 5 µM

CNC(=O)c1c(-c2ccccc2)oc2ccc(OC(C)C)cc12 [Example 59, 5-Isopropoxy-2-phenyl-benzofuran-3-carboxylic acid methylamide]
EC50 [1]: < 30 µM
IC50 (HCV NS5B): 0.5 to 5 µM

CCCCOc1ccc2oc(-c3ccccc3)c(C(=O)NC)c2c1 [Example 60, 5-Butoxy-2-phenyl-benzofuran-3-carboxylic acid methylamide]
EC50 [1]: < 30 µM
IC50 (HCV NS5B): 0.5 to 5 µM

CCCOc1ccc2oc(-c3ccccc3)c(C(=O)NC)c2c1 [Example 61, 2-Phenyl-5-propoxy-benzofuran-3-carboxylic acid methylamide]
EC50 [1]: < 30 µM
IC50 (HCV NS5B): 0.5 to 5 µM

CNC(=O)c1c(-c2cc(F)c(F)cc2F)oc2ccc(OC)cc12 [Example 62, 5-Methoxy-2-(2,4,5-trifluoro-phenyl)-benzofuran-3-carboxylic acid methylamide]
EC50 [1]: < 30 µM
IC50 (HCV NS5B): 5 to 30 µM

CNC(=O)c1c(-c2ccccc2)oc2c(C)cc(OC)cc12 [Example 63, 5-Methoxy-7-methyl-2-phenyl-benzofuran-3-carboxylic acid methylamide]
EC50 [1]: < 10 µM
IC50 (HCV NS5B): 0.5 to 5 µM

CNC(=O)c1c(-c2ccc(F)cc2)oc2ccc(OC(C)C)cc12 [Example 65, 2-(4-Fluoro-phenyl)-5-isopropoxy-benzofuran-3-carboxylic acid methylamide]
EC50 [1]: < 30 µM
IC50 (HCV NS5B): 0.5 to 5 µM

CNC(=O)c1c(-c2ccccc2Cl)oc2ccc(OC)cc12 [Example 66, 2-(2-Chloro-phenyl)-5-methoxy-benzofuran-3-carboxylic acid methylamide]
EC50 [1]: > 30 µM
IC50 (HCV NS5B): 5 to 30 µM

CNC(=O)c1c(-c2ccccc2)oc2cc(OC)ccc12 [Example 67, 6-Methoxy-2-phenyl-benzofuran-3-carboxylic acid methylamide]
EC50 [1]: < 10 µM
IC50 (HCV NS5B): 0.5 to 5 µM

CNC(=O)c1c(-c2ccco2)oc2ccc(OC)cc12 [Example 68, 2-Furan-2-yl-5-methoxy-benzofuran-3-carboxylic acid methylamide]
EC50 [1]: < 30 µM
IC50 (HCV NS5B): 0.5 to 5 µM

CNC(=O)c1c(-c2ccc(C)c(F)c2)oc2ccc(OC)cc12 [Example 69, 2-(3-Fluoro-4-methyl-phenyl)-5-methoxy-benzofuran-3-carboxylic acid methylamide]
EC50 [1]: < 10 µM
IC50 (HCV NS5B): ≤ 0.5 µM

CNC(=O)c1c(-c2ccc(Br)cc2)oc2ccc(OC)cc12 [Example 70, 2-(4-Bromo-phenyl)-5-methoxy-benzofuran-3-carboxylic acid methylamide]
EC50 [1]: < 10 µM
IC50 (HCV NS5B): ≤ 0.5 µM
